{
  "source": "patent US20210186070A1",
  "about": "“STEVIA EXTRACT CONTAINING SELECTED STEVIOL GLYCOSIDES AS FLAVOR, SALTY AND SWEETNESS PROFILE MODIFIER” (PureCircle USA Inc., priority 2013, published 2021)",
  "origin": "cited, not measured here",
  "data": [
    {"smiles": "C=C1C[C@@]23CC[C@H]4[C@@](C)(CCC[C@@]4(C)C(=O)O[C@@H]4O[C@H](CO)[C@@H](O)[C@H](O)[C@H]4O)[C@@H]2CC[C@]1(O[C@@H]1O[C@H](CO)[C@@H](O)[C@H](O[C@@H]2O[C@H](CO)[C@@H](O)[C@H](O)[C@H]2O)[C@H]1O[C@@H]1O[C@H](CO)[C@@H](O)[C@H](O)[C@H]1O)C3", "note": "[Rebaudioside A]", "values": [
      {"measurement": "sweetness potency, times higher than sucrose", "value": "around 300 times"}
    ]}
  ]
}
